Results on five molecules are retold here after ChEMBL document CHEMBL3393036, “Tetra-substituted pyridinylimidazoles as dual inhibitors of p38α mitogen-activated protein kinase and c-Jun N-terminal kinase 3 for potential treatment of neurodegenerative diseases” (J Med Chem, 2015).

The test system of assay [1] is Fibroblast growth factor receptor 3 (Homo sapiens), P22607 [K650E]. Nature of the assay: Inhibition of FGFR3 K650E (unknown origin) at 5.5 uM by Caliper Mobility Shift Assay.
Assay [2] has as its target Mitogen-activated protein kinase kinase kinase 8 (Homo sapiens) (UniProt P41279). The assay is described as follows: Inhibition of MAP3K8 (unknown origin) at 5.5 uM by Caliper Mobility Shift Assay.
Assay [3] deals with Tyrosine-protein kinase JAK2 (Homo sapiens) (UniProt O60674). The assay is described as follows: Inhibition of JAK2 (unknown origin) at 5.5 uM by Caliper Mobility Shift Assay.
The target in assay [4] is Tyrosine-protein kinase ABL1 (Homo sapiens) (UniProt P00519). The assay is described as follows: Inhibition of ABL1 (unknown origin) at 5.5 uM by Caliper Mobility Shift Assay.
The target in assay [5] is Tyrosine-protein kinase JAK1 (Homo sapiens) (UniProt P23458). Nature of the assay: Inhibition of JAK1 (unknown origin) at 5.5 uM by Caliper Mobility Shift Assay.
Chain of Tyrosine-protein kinase JAK1 (Homo sapiens) (P23458 whole entry): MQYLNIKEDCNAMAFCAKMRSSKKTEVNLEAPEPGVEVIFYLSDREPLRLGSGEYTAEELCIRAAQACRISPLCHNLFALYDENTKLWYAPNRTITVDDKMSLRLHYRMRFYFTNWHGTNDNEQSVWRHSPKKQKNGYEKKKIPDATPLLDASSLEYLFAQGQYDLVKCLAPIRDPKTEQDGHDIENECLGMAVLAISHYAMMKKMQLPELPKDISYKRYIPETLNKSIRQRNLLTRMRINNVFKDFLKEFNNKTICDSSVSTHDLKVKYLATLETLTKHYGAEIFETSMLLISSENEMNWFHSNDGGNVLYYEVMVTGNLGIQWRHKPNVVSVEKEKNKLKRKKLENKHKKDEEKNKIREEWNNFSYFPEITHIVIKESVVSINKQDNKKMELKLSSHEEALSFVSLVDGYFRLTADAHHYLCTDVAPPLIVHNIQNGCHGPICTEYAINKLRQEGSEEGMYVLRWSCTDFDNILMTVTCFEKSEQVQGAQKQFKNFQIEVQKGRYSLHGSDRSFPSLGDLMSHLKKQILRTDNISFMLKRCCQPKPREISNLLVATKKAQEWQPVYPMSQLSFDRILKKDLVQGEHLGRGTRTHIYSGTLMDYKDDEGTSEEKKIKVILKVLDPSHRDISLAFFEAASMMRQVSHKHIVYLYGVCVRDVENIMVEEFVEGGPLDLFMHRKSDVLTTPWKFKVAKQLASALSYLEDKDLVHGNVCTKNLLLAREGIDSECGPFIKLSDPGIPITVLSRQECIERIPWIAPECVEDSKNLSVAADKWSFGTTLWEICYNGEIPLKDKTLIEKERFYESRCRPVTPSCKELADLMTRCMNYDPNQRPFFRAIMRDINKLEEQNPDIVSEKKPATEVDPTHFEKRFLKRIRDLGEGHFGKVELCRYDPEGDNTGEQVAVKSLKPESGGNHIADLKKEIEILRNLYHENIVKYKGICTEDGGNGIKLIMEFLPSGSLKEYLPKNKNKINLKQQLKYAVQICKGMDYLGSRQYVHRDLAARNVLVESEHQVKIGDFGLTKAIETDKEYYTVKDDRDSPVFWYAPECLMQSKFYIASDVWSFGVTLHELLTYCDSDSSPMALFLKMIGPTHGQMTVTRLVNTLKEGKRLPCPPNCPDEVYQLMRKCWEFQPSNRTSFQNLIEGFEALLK
The species entered for the next assay is Homo sapiens. The assay is described as follows: Inhibition of PRKACA(PKA) (unknown origin) at 5.5 uM by Caliper Mobility Shift Assay.
Assay [6] addresses MAP kinase-interacting serine/threonine-protein kinase 1 (Homo sapiens) (UniProt Q9BUB5). The assay is described as follows: Inhibition of MKNK1 (unknown origin) at 5.5 uM by Caliper Mobility Shift Assay.
Assay [7] concerns the target Protein kinase C alpha type (Homo sapiens) (UniProt P17252). The assay is described as follows: Inhibition of PRKCA (unknown origin) at 5.5 uM by Caliper Mobility Shift Assay.
The target of assay [8] is Vascular endothelial growth factor receptor 2 (Homo sapiens) (UniProt P35968). Nature of the assay: Inhibition of KDR (unknown origin) at 5.5 uM by Caliper Mobility Shift Assay.
Assay [9] addresses Tyrosine-protein kinase SYK (Homo sapiens) (UniProt P43405). The assay is described as follows: Inhibition of SYK (unknown origin) at 5.5 uM by Caliper Mobility Shift Assay.
Assay [10] deals with Fibroblast growth factor receptor 4 (Homo sapiens) (UniProt P22455). Nature of the assay: Inhibition of FGFR4 (unknown origin) at 5.5 uM by Caliper Mobility Shift Assay.
The target in assay [11] is Tyrosine-protein kinase BTK (Homo sapiens) (UniProt Q06187). Nature of the assay: Inhibition of BTK (unknown origin) at 5.5 uM by Caliper Mobility Shift Assay.
Assay [12] has as its target Fibroblast growth factor receptor 2 (Homo sapiens) (UniProt P21802). Nature of the assay: Inhibition of FGFR2 (unknown origin) at 5.5 uM by Caliper Mobility Shift Assay.
Assay [13] addresses Mitogen-activated protein kinase kinase kinase kinase 4 (Homo sapiens) (UniProt O95819). The assay is described as follows: Inhibition of MAP4K4 (unknown origin) at 5.5 uM by Caliper Mobility Shift Assay.
For assay [14], the target named is Cyclin-dependent kinase 2 (Homo sapiens) (UniProt P24941). The assay is described as follows: Inhibition of CDK2 (unknown origin) at 5.5 uM by Caliper Mobility Shift Assay.
Assay [15] concerns the target Rho-associated protein kinase 2 (Homo sapiens) (UniProt O75116). The assay is described as follows: Inhibition of ROCK2 (unknown origin) at 5.5 uM by Caliper Mobility Shift Assay.
The target of assay [16] is T1, Activin receptor type-1 (Homo sapiens) (UniProt Q04771).
T1 sequence (whole entry): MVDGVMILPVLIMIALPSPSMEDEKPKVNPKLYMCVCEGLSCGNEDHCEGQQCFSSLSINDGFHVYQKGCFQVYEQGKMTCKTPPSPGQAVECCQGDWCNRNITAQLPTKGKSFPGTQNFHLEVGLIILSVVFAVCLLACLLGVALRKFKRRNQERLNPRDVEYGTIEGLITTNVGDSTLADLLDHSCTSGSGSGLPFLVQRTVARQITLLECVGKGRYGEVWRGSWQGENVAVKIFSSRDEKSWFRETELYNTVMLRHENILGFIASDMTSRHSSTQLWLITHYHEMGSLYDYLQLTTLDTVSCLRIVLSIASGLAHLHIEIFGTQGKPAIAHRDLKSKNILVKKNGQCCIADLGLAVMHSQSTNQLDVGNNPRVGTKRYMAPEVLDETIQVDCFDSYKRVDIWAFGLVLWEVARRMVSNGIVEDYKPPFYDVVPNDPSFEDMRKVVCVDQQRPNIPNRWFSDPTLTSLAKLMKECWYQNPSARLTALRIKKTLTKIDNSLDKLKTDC
The assay is described as follows: Inhibition of ACVR1 (ALK2) (unknown origin) at 5.5 uM by Caliper Mobility Shift Assay.

Assay [17] addresses Mitogen-activated protein kinase 10 (Homo sapiens, UniProt P53779). Nature of the assay: Inhibition of JNK3 (unknown origin) assessed as phosphorylation of ATF-2 by ELISA. For orientation: ELISA stands for enzyme-linked immunosorbent assay.
The target in assay [18] is T2, Tyrosine-protein kinase ZAP-70 (Homo sapiens) (UniProt P43403).
T2 sequence (whole entry): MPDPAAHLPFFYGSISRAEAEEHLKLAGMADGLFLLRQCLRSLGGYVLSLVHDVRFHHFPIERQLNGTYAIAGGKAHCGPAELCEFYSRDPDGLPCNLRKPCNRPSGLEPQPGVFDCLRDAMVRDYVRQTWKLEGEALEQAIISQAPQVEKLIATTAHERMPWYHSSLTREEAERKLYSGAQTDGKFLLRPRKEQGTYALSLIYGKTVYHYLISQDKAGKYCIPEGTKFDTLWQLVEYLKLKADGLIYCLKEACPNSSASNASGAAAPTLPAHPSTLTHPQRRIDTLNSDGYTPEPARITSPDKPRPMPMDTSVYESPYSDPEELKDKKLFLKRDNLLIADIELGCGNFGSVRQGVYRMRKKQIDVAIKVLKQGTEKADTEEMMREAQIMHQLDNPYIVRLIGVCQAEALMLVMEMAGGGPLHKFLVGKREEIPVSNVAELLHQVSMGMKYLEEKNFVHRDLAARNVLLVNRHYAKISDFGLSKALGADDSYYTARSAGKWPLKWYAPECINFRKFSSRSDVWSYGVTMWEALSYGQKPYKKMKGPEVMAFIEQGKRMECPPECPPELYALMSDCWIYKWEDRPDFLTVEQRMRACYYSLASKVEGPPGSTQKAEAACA
Nature of the assay: Inhibition of ZAP70 (unknown origin) at 5.5 uM by Caliper Mobility Shift Assay.

Chain of MAP kinase-interacting serine/threonine-protein kinase 1 (Homo sapiens) (Q9BUB5 whole entry, looked up): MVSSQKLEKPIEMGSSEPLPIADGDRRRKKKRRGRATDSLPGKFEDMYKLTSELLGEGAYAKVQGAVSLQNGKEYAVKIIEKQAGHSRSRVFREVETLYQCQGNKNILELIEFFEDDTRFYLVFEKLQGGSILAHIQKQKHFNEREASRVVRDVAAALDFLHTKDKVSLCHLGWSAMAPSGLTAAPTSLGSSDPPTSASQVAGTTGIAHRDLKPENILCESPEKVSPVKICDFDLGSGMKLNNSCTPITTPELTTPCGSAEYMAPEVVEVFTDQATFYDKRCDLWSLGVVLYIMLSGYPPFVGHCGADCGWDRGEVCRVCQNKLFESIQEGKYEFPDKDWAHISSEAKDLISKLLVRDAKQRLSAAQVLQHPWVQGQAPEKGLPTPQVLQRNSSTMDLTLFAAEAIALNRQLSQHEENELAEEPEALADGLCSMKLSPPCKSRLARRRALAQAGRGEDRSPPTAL
Chain of Fibroblast growth factor receptor 3 (Homo sapiens), P22607 [K650E] (P22607 whole entry K650E): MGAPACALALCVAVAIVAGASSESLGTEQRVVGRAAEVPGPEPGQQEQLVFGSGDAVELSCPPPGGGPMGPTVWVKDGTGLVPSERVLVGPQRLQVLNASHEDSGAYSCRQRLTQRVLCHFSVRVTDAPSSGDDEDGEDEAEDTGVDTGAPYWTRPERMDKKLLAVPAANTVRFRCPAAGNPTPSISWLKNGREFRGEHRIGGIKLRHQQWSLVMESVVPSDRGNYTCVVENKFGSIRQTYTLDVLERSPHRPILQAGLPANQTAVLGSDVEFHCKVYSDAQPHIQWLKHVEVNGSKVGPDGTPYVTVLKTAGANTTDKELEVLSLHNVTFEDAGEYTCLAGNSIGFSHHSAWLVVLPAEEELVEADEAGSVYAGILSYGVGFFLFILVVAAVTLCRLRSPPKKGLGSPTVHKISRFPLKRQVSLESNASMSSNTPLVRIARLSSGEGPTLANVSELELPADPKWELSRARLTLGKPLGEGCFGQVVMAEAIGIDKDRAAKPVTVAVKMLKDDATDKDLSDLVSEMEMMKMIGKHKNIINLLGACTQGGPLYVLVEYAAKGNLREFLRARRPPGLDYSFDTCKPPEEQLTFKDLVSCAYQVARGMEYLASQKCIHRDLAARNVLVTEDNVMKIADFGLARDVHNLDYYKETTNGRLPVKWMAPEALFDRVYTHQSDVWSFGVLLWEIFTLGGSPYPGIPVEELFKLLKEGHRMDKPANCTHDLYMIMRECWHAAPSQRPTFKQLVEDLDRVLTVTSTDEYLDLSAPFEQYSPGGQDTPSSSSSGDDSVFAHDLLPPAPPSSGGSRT
Chain of Mitogen-activated protein kinase kinase kinase 8 (Homo sapiens) (P41279 whole entry): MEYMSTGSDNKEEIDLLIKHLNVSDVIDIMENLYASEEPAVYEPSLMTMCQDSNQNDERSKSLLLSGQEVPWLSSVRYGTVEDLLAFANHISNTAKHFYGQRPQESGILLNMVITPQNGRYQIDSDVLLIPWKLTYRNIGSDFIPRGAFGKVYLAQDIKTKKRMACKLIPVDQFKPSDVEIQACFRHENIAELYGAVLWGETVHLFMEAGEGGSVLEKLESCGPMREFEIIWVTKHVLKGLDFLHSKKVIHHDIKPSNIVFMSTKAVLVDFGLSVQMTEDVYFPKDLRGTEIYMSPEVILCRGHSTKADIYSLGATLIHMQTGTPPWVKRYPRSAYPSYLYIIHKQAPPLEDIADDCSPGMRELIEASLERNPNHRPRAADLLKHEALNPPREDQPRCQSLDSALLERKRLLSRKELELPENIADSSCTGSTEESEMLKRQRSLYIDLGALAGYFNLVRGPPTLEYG
Chain of Mitogen-activated protein kinase kinase kinase kinase 4 (Homo sapiens) (O95819 2-1239 limits assumed): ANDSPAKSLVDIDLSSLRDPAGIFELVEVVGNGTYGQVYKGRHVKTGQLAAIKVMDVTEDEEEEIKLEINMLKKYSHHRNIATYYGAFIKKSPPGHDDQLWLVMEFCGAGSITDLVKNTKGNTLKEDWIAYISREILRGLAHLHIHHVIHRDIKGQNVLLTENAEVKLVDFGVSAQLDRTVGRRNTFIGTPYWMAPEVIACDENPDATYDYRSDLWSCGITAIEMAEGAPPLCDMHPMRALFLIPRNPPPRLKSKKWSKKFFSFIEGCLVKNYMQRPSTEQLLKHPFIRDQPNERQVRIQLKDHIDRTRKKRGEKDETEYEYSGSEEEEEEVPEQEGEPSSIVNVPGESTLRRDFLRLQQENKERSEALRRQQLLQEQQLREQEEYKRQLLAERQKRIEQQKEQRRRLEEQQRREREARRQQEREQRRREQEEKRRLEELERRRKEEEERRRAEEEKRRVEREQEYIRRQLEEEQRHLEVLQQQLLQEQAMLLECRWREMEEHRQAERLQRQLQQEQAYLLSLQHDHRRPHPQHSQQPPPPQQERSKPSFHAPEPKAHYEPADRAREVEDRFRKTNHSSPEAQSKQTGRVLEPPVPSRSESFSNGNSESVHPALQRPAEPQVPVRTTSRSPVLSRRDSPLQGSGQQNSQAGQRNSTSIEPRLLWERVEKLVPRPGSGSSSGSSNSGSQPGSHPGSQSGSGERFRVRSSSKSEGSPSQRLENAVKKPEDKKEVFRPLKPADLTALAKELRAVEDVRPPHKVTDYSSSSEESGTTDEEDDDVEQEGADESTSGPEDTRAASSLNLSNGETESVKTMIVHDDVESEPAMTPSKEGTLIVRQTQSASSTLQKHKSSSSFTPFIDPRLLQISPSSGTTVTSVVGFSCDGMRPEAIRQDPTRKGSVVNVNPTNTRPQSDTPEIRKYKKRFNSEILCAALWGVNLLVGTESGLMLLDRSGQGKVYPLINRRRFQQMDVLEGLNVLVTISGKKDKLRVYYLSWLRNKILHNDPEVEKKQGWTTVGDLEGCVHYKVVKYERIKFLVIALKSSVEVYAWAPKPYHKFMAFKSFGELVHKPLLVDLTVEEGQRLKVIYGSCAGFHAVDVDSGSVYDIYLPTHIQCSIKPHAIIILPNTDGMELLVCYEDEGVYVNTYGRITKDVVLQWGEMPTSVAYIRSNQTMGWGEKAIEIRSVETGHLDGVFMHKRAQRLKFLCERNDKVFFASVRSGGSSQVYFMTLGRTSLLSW
Chain of Fibroblast growth factor receptor 2 (Homo sapiens) (P21802 22-821 limits assumed): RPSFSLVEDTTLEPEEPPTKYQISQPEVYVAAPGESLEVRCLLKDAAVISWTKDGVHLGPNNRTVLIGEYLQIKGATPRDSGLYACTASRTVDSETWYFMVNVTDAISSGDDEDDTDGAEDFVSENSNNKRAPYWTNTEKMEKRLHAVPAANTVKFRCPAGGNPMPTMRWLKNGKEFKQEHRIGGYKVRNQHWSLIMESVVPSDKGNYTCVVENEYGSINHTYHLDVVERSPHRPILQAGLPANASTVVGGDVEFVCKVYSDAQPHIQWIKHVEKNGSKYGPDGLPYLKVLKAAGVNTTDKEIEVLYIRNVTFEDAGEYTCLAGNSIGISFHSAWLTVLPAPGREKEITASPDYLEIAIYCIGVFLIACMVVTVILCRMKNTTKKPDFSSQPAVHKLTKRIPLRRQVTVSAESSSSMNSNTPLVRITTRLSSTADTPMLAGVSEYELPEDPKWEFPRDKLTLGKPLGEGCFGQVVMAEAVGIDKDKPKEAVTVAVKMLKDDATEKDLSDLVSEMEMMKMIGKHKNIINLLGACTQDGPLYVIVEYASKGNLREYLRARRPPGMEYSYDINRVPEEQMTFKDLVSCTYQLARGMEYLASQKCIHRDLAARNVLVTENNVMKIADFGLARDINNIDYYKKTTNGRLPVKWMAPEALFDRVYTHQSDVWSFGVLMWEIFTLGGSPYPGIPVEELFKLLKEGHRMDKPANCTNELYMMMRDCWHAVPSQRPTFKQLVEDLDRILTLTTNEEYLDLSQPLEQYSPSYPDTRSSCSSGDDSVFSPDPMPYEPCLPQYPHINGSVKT

Turning to `CC(=O)Nc1cc(-c2c(-c3ccc(F)cc3)nc(S/C=C\C(=O)O)n2CC2CCCO2)ccn1` (racemic), the inhibition (in [1]; in assay [2]; in assay [3]; in assay [4]; in [5]; in the assay filed under Homo sapiens) was below 50% each time. The inhibition in [6], in [7], in [8], in assay [9], in assay [10] and in assay [11] was below 50% throughout. Further, the inhibition in assay [12], in assay [13], in assay [14], in assay [15], in assay [16] and in assay [18] was below 50% in each case. In [17], the IC50 (commonly the concentration needed to halve the response being measured) was 35 nM.
In the case of `CC(=O)Nc1cc(-c2c(-c3ccc(F)cc3)nc(S/C=C\C(=O)O)n2C2CC2)ccn1`, the inhibition (in [1]; in assay [2]; in assay [3]; in [4]; in [5]; in the assay listed under Homo sapiens) was below 50% throughout. The inhibition in [6], in assay [7], in assay [8], in assay [9], in assay [10] and in [11] was below 50% each time. Moreover, the inhibition in assay [12], in [13], in assay [14], in [15], in [16] and in [18] was below 50% throughout. Further, the IC50 in assay [17] stood at 82 nM.
For `COC(Cn1c(SC2CCC(C(=O)O)CC2O)nc(-c2ccc(F)cc2)c1-c1ccnc(NC(C)=O)c1)OC` (stereo not given), the inhibition (in assay [1]; in assay [2]; in [3]; in [4]; in assay [5]; in the assay filed under Homo sapiens) was below 50% each time. The inhibition in assay [6], in assay [7], in assay [8], in assay [9], in assay [10] and in assay [11] was below 50% in each case. For the same molecule, the inhibition in assay [12], in assay [13], in assay [14], in assay [15], in assay [16] and in assay [18] was below 50% throughout. Also, the half-inhibitory concentration (IC50) in assay [17] came to 2010 nM.
For the molecule `CC(=O)Nc1cc(-c2c(-c3ccc(F)cc3)nc(Sc3cccc(I)n3)n2C2CCCCC2)ccn1`, the inhibition (in assay [1]; in [2]; in [3]; in assay [4]; in assay [5]; in the assay filed under Homo sapiens) was below 50% throughout. Moreover, the inhibition in assay [6], in assay [7], in assay [8], in assay [9], in assay [10] and in assay [11] was below 50% in each case. Moreover, the inhibition in assay [12], in assay [13], in [14], in assay [15], in assay [16] and in assay [18] was below 50% each time. For the same molecule, the IC50 in assay [17] is 1530 nM.
Consider `CC(=O)Nc1cc(-c2c(-c3ccc(F)cc3)nc(S/C=C\C(=O)O)n2C2CCCCC2)ccn1`, for which the inhibition (in assay [1]; in assay [2]; in [3]; in [4]; in assay [5]; in the assay listed under Homo sapiens) was below 50% throughout. In addition, the inhibition in assay [6], in assay [7], in assay [8], in assay [9], in assay [10] and in assay [11] was below 50% throughout. Besides, the inhibition in assay [12], in assay [13], in assay [14], in assay [15], in assay [16] and in assay [18] was below 50% throughout. Further, the IC50 in [17] was 133 nM.
